Results on one molecule are retold here after patent publication US20090298903A1, “USE OF TETRAMIC ACID DERIVATIVES FOR INSECT CONTROL” (priority 2006, published 2009).

For this assay, the system named is Carpocapsa pomonella. In words: Example 29: apple trees against Carpocapsa pomonella, fruit damage. It is filed as in vivo. The note with it: application rate printed as g a.s./ha: Chlorpyrifos-methyl (25 WP) 0.1, (I-4) (240 SC + 0.1% Steffes Mero) 0.012. As to the method:
Approx. 15-year-old apple trees cv. “Golden Delicious” are treated, in four replications, against Carpocapsa pomonella. The application is carried out with an atomizer. Here, the active substance Example (I-4) (240 SC) in a tank mix together with 0.1% a.s. of the adjuvant Steffes Mero (rapeseed oil methyl ester) (733 1R) and the commercial standard Chlorpyrifos-methyl (25 WP) are tested at the specified application rates. The water application rate is 1052 l/ha. Two applications are carried out at an interval of 13 days.
The test is evaluated 32 days after treatment 2 by scoring the fruit damage with the aid of the Abbott formula.

As to `COP(=S)(OC)Oc1nc(Cl)c(Cl)cc1Cl` [Chlorpyrifos-methyl], the “Efficacy (% Abbott) 32 d after treatment 2” value is reported as 66.7 % Abbott.
